# In EP4617282A1, “MEMBRANE FUSION INHIBITOR FOR […] VIRUS AND DRUG-RESISTANT STRAIN THEREOF, AND PHARMACEUTICAL USE THEREOF” (Institute Of Pathogen Biology, Chinese Academy Of Medical …, priority 2022, dated 2024):
# pIC50: −log10 of the molar value. Residues, ends and D or L forms follow the SMILES beside them. *: point of attachment. Succinyl(4-O-cholesteryl) = CC(C)CCC[C@@H](C)[C@H]1CC[C@H]2[C@@H]3CC=C4C[C@@H](OC(=O)CCC(=O)*)CC[C@]4(C)[C@H]3CC[C@]12C
# Legend:
# [1] = tested on: HIV-1JRFL pseudovirus; type: cell-based; settings: TZM-b1 cells, 100 TCID50, 48 hours
# Text: (§1) HIV-1JRFL Env expression vectors and backbone plasmas (pSG3 ΔEnv) and TZM-bl cells were described in the following literature: Xue, J., Chong, H., Zhu, Y, Zhang, J., Tong, L., Lu, J., Chen, T., Cong, Z., Wei, Q., He, Y., 2022. Efficient treatment and pre-exposure prophylaxis in rhesus macaques by an HIV fusion-inhibitory lipopeptide. Cell 185, 131-144 e118. The HIV-1JRFL Env expression vector and the backbone plasmas (pSG3 ΔEnv) were co-transfected into HEK293T cells, and the transfected cells were cultured in a cell culture incubator at 37 °C and 5% CO2 for 48 hours, and then the supernatant was collected and filtered to collect the filtrate. The resulting filtrate was a virus solution containing HIV-1JRFL pseudovirus particles (called as HIV-1JRFL virus solution), which was preserved at -80 °C for later use.
# Test virus solution: HIV-1NL4-3 virus solution or HIV-1JRFL virus solution. • 1. A test lipopeptide was dissolved in deionized water and then diluted with DMEM medium (using 3-fold dilution) to obtain a lipopeptide diluent. 9 dilutions were set for each test lipopeptide. • 2. In a 96-well plate, the lipopeptide diluent (50 µL/well) was added to drug wells and the DMEM medium (50 µL/well) was added to control wells. Each well was set with three duplicate wells. • 3. After step 2 was finished, a test virus solution (50 µL/well, a virus content of 100 TCID50) was added to the 96-well plate and incubated at room temperature for 30 minutes. • 4. After step 3 was finished, a TZM-b1 cell suspension (100 µL/well) was added to the 96-well plate and cultured for 48 hours in a cell culture incubator at 37 °C and 5% CO2. Preparation method of the TZM-b1 cell suspension: TZM-b1 cells were re-suspended in a DMEM medium and DEAE-dextran was added thereto such that the cell concentration was 10×10^4 cells/mL and the DEAE-dextran concentration was 15 µg/mL. • 5. […] Relative luminescence units (RLU) were measured by a microplate luminometer, an inhibition rate curve was made, and the half-maximal inhibition concentration (IC50) of the drug was calculated. […]
# [2] = tested on: HIV-1NL4-3 pseudovirus; type: cell-based; settings: TZM-b1 cells, 100 TCID50, 48 hours
# Text: as §1
# The preparation method of the HIV-1NL4-3 virus solution (i.e., the virus solution containing HIV-1NL4-3 pseudovirus particle) was basically the same as that of the HIV-1JRFL virus liquid, except that the HIV-1JRFL Env expression vector was replaced with HIV-1NL4-3 Env expression vector. […]
# Test virus solution: HIV-1NL4-3 virus solution or HIV-1JRFL virus solution. • 1. […] Relative luminescence units (RLU) were measured by a microplate luminometer, an inhibition rate curve was made, and the half-maximal inhibition concentration (IC50) of the drug was calculated. […]
Compound,pIC50 [1],pIC50 [2]
CC[C@H](C)[C@H](NC(=O)[C@H](CCC(=O)O)NC(C)=O)C(=O)N[C@@H](CCC(=O)O)C(=O)N[C@@H](CCC(=O)O)C(=O)N[C@@H](CC(C)C)C(=O)N[C@@H](CCC(=O)O)C(=O)N[C@@H](CCCCN)C(=O)N[C@@H](CCCCN)C(=O)N[C@H](C(=O)N[C@@H](CCC(=O)O)C(=O)N[C@@H](CCC(=O)O)C(=O)N[C@@H](CC(C)C)C(=O)N[C@@H](CC(C)C)C(=O)N[C@@H](CCCCN)C(=O)N[C@@H](CCCCN)C(=O)N[C@@H](C)C(=O)N[C@@H](CCC(=O)O)C(=O)N[C@@H](CCC(=O)O)C(=O)N[C@@H](CCC(N)=O)C(=O)N[C@@H](CCC(N)=O)C(=O)N[C@@H](CCCCN)C(=O)N[C@@H](CCCCN)C(=O)N[C@@H](CC(N)=O)C(=O)N[C@@H](CCC(=O)O)C(=O)N[C@@H](CCC(=O)O)C(=O)N[C@@H](CCC(=O)O)C(=O)N[C@@H](CC(C)C)C(=O)N[C@@H](CCCCN)C(=O)N[C@@H](CCCCN)C(=O)N[C@@H](CC(C)C)C(=O)N[C@@H](CCC(=O)O)C(=O)N[C@@H](CCCCNC(=O)CCC(=O)O[C@H]1CC[C@@]2(C)C(=CC[C@H]3[C@@H]4CC[C@H]([C@H](C)CCCC(C)C)[C@@]4(C)CC[C@@H]32)C1)C(N)=O)[C@@H](C)CC [LP-101] (Ac-EIEELEKKIEELLKKAEEQQKKNEEELKKLEK(Succinyl(4-O-cholesteryl))-NH2),11.65,
CC[C@H](C)[C@H](NC(=O)[C@H](CCCCN)NC(=O)[C@H](CCCCN)NC(=O)[C@H](CCC(=O)O)NC(=O)[C@H](Cc1c[nH]c2ccccc12)NC(=O)[C@H](CCC(=O)O)NC(=O)[C@H](CCC(=O)O)NC(=O)[C@H](Cc1c[nH]c2ccccc12)NC(C)=O)C(=O)N[C@@H](CCC(=O)O)C(=O)N[C@@H](CCC(=O)O)C(=O)N[C@@H](CC(C)C)C(=O)N[C@@H](CCC(=O)O)C(=O)N[C@@H](CCCCN)C(=O)N[C@@H](CCCCN)C(=O)N[C@H](C(=O)N[C@@H](CCC(=O)O)C(=O)N[C@@H](CCC(=O)O)C(=O)N[C@@H](CC(C)C)C(=O)N[C@@H](CC(C)C)C(=O)N[C@@H](CCCCN)C(=O)N[C@@H](CCCCN)C(=O)N[C@@H](C)C(=O)N[C@@H](CCC(=O)O)C(=O)N[C@@H](CCC(=O)O)C(=O)N[C@@H](CCC(N)=O)C(=O)N[C@@H](CCC(N)=O)C(=O)N[C@@H](CCCCN)C(=O)N[C@@H](CCCCN)C(=O)N[C@@H](CC(N)=O)C(=O)N[C@@H](CCC(=O)O)C(=O)N[C@@H](CCC(=O)O)C(=O)N[C@@H](CCC(=O)O)C(=O)N[C@@H](CC(C)C)C(=O)N[C@@H](CCCCN)C(=O)N[C@@H](CCCCN)C(=O)N[C@@H](CC(C)C)C(=O)N[C@@H](CCC(=O)O)C(=O)N[C@@H](CCCCNC(=O)CCC(=O)O[C@H]1CC[C@@]2(C)C(=CC[C@H]3[C@@H]4CC[C@H]([C@H](C)CCCC(C)C)[C@@]4(C)CC[C@@H]32)C1)C(N)=O)[C@@H](C)CC [LP-104] (Ac-WEEWEKKIEELEKKIEELLKKAEEQQKKNEEELKKLEK(Succinyl(4-O-cholesteryl))-NH2),10.22,10.84
"CC[C@H](C)[C@H](NC(=O)[C@H](CCCCN)NC(=O)[C@H](CCC(N)=O)NC(=O)[C@H](CCC(=O)O)NC(=O)[C@H](Cc1ccc(O)cc1)NC(C)=O)C(=O)N[C@@H](CCC(=O)O)C(=O)N[C@@H](CCC(=O)O)C(=O)N[C@@H](CC(C)C)C(=O)N[C@@H](CC(C)C)C(=O)N[C@@H](CCCCN)C(=O)N[C@@H](CCCCN)C(=O)N[C@@H](C)C(=O)N[C@@H](CCC(=O)O)C(=O)N[C@@H](CCC(=O)O)C(=O)N[C@@H](CCC(N)=O)C(=O)N[C@@H](CCC(N)=O)C(=O)N[C@@H](CCCCN)C(=O)N[C@@H](CCCCN)C(=O)N[C@@H](CC(N)=O)C(=O)N[C@@H](CCC(=O)O)C(=O)N[C@@H](CCC(=O)O)C(=O)N[C@@H](CCC(=O)O)C(=O)N[C@@H](CC(C)C)C(=O)N[C@@H](CCCCN)C(=O)N[C@@H](CCCCN)C(=O)N[C@@H](CC(C)C)C(=O)N[C@@H](CCC(=O)O)C(=O)N[C@@H](CCCCNC(=O)CCC(=O)O[C@H]1CC[C@@]2(C)C(=CC[C@H]3[C@@H]4CC[C@H]([C@H](C)CCCC(C)C)[C@@]4(C)CC[C@@H]32)C1)C(N)=O [LP-98, reference compound] (Ac-YEQKIEELLKKAEEQQKKNEEELKKLEK(Succinyl(4-O-cholesteryl))-NH2)",11.59,11.97
